# Patent publication EP0432983A2 (priority 1989, dated 1991)
# Experiments:
# [1] = system: VSV (Vesicular Stomatitis Virus); assay: microbe, parasite or virus in culture; type: cell-based; conditions: BHK, read-out: IC50 µg/ml approx
# [2] = system: MCF-7 (human breast carcinoma); assay: General anti-tumour assay, MCF-7; type: cell-based
# Description: (§1) With compounds AH-3, AH-4 and AH-5, four general anti-tumour assays and two cytotoxicity assays were performed. Current screening protocols were employed using test substance diluted as above and at varying concentrations. Tests were performed against the tumour cells P-388 (mouse DBA/2 lymphoid neoplasm), A-549 (human lung carcinoma), HT-29 (human colon carcinoma) and MCF-7 (human breast carcinoma) and for the cytotoxicity assays against CV-1 (monkey kidney fibroblast) and BHK (Hamster kidney fibroblast).
# (§2) Scoring is performed as follows: (-) no activity - the number of cells is equal to the control of growth, 0-40% cell inhibition (+) low activity - numbers of cells are reduced by approx 50-60% (++) good activity - numbers of cells are reduced by approx 70-90% (+++) very good activity - there is 100% cell inhibition [(+) is the approximate IC₅₀]
# [3] = system: A-549 (human lung carcinoma); assay: General anti-tumour assay, A-549; type: cell-based
# Description: as §1, §2
# [4] = system: HSV-1 (herpes simplex virus, type 1); assay: General anti-viral assay, HSV-1 in CV-1 cells (plaque reduction); type: cell-based; conditions: Human alphaherpesvirus 1; CV-1/ HSV-1; read-out: IC50 µg/ml approx
# [5] = system: CV-1 (monkey kidney fibroblast); assay: Cytotoxicity assay, CV-1; type: cell-based
# Description: as §1, §2
# [6] = system: P-388 (mouse DBA/2 lymphoid neoplasm); assay: General anti-tumour assay, P-388; type: cell-based
# Description: as §1, §2
# [7] = system: HT-29 (human colon carcinoma); assay: General anti-tumour assay, HT-29; type: cell-based
# Description: as §1, §2
# [8] = system: BHK (Hamster kidney fibroblast); assay: Cytotoxicity assay, BHK; type: cell-based
# Description: as §1, §2
smiles,measurement,setting,value
"CC(C)=CCCC(C)C1CCC(C)c2c1cc(C)c1c2OCO1 (stereo not drawn) [AH-4, Helioporin D]",IC50,[1],> 40 µg/mL
same,IC50,"[2]; Homo sapiens, MCF7, MCF-7, read-out: IC50 µg/ml approx",~10 µg/mL
same,activity (cell inhibition),"[2]; MCF-7, TEST CONC (µg) 0.2","- ((-) no activity - the number of cells is equal to the control of growth, 0-40% cell inhibition)"
same,activity (cell inhibition),"[2]; MCF-7, TEST CONC (µg) 0.5","- ((-) no activity - the number of cells is equal to the control of growth, 0-40% cell inhibition)"
same,activity (cell inhibition),"[2]; MCF-7, TEST CONC (µg) 1","- ((-) no activity - the number of cells is equal to the control of growth, 0-40% cell inhibition)"
same,activity (cell inhibition),"[2]; MCF-7, TEST CONC (µg) 2","- ((-) no activity - the number of cells is equal to the control of growth, 0-40% cell inhibition)"
same,activity (cell inhibition),"[2]; MCF-7, TEST CONC (µg) 5","- ((-) no activity - the number of cells is equal to the control of growth, 0-40% cell inhibition)"
same,activity (cell inhibition),"[2]; MCF-7, TEST CONC (µg) 10",+ ((+) low activity - numbers of cells are reduced by approx 50-60%)
same,activity (cell inhibition),"[2]; MCF-7, TEST CONC (µg) 20",++ ((++) good activity - numbers of cells are reduced by approx 70-90%)
same,cytotoxicity (inhibition zone on the cell sheet),BHK cells,0-
same,activity (cell inhibition),"[3]; A-549, TEST CONC (µg) 0.2","- ((-) no activity - the number of cells is equal to the control of growth, 0-40% cell inhibition)"
same,activity (cell inhibition),"[3]; A-549, TEST CONC (µg) 0.5","- ((-) no activity - the number of cells is equal to the control of growth, 0-40% cell inhibition)"
same,activity (cell inhibition),"[3]; A-549, TEST CONC (µg) 1","- ((-) no activity - the number of cells is equal to the control of growth, 0-40% cell inhibition)"
same,activity (cell inhibition),"[3]; A-549, TEST CONC (µg) 2","- ((-) no activity - the number of cells is equal to the control of growth, 0-40% cell inhibition)"
same,activity (cell inhibition),"[3]; A-549, TEST CONC (µg) 5","- ((-) no activity - the number of cells is equal to the control of growth, 0-40% cell inhibition)"
same,activity (cell inhibition),"[3]; A-549, TEST CONC (µg) 10",++ ((++) good activity - numbers of cells are reduced by approx 70-90%)
same,activity (cell inhibition),"[3]; A-549, TEST CONC (µg) 20",++ ((++) good activity - numbers of cells are reduced by approx 70-90%)
same,IC50,"[3]; Homo sapiens, A549, A-549, read-out: IC50 µg/ml approx",5 to 10 µg/mL
same,IC50,[4],> 40 µg/mL
same,activity (cell inhibition),"[5]; CV-1, TEST CONC (µg) 0.2","- ((-) no activity - the number of cells is equal to the control of growth, 0-40% cell inhibition)"
same,activity (cell inhibition),"[5]; CV-1, TEST CONC (µg) 0.5","- ((-) no activity - the number of cells is equal to the control of growth, 0-40% cell inhibition)"
same,activity (cell inhibition),"[5]; CV-1, TEST CONC (µg) 1","- ((-) no activity - the number of cells is equal to the control of growth, 0-40% cell inhibition)"
same,activity (cell inhibition),"[5]; CV-1, TEST CONC (µg) 2","- ((-) no activity - the number of cells is equal to the control of growth, 0-40% cell inhibition)"
same,activity (cell inhibition),"[5]; CV-1, TEST CONC (µg) 5","- ((-) no activity - the number of cells is equal to the control of growth, 0-40% cell inhibition)"
same,activity (cell inhibition),"[5]; CV-1, TEST CONC (µg) 10",+ ((+) low activity - numbers of cells are reduced by approx 50-60%)
same,activity (cell inhibition),"[5]; CV-1, TEST CONC (µg) 20",++ ((++) good activity - numbers of cells are reduced by approx 70-90%)
same,IC50,"[5]; Primates, CV-1, read-out: IC50 µg/ml approx",~10 µg/mL
same,IC50,"[6]; Mus musculus, P388, P-388, read-out: IC50 µg/ml approx",~2 µg/mL
same,activity (cell inhibition),"[6]; P-388, TEST CONC (µg) 0.2","- ((-) no activity - the number of cells is equal to the control of growth, 0-40% cell inhibition)"
same,activity (cell inhibition),"[6]; P-388, TEST CONC (µg) 0.5","- ((-) no activity - the number of cells is equal to the control of growth, 0-40% cell inhibition)"
same,activity (cell inhibition),"[6]; P-388, TEST CONC (µg) 1","- ((-) no activity - the number of cells is equal to the control of growth, 0-40% cell inhibition)"
same,activity (cell inhibition),"[6]; P-388, TEST CONC (µg) 2",+ ((+) low activity - numbers of cells are reduced by approx 50-60%)
same,activity (cell inhibition),"[6]; P-388, TEST CONC (µg) 5",++ ((++) good activity - numbers of cells are reduced by approx 70-90%)
same,activity (cell inhibition),"[6]; P-388, TEST CONC (µg) 10",++ ((++) good activity - numbers of cells are reduced by approx 70-90%)
same,activity (cell inhibition),"[6]; P-388, TEST CONC (µg) 20",++ ((++) good activity - numbers of cells are reduced by approx 70-90%)
same,activity (cell inhibition),"[7]; HT-29, TEST CONC (µg) 0.2","- ((-) no activity - the number of cells is equal to the control of growth, 0-40% cell inhibition)"
same,activity (cell inhibition),"[7]; HT-29, TEST CONC (µg) 0.5","- ((-) no activity - the number of cells is equal to the control of growth, 0-40% cell inhibition)"
same,activity (cell inhibition),"[7]; HT-29, TEST CONC (µg) 1","- ((-) no activity - the number of cells is equal to the control of growth, 0-40% cell inhibition)"
same,activity (cell inhibition),"[7]; HT-29, TEST CONC (µg) 2","- ((-) no activity - the number of cells is equal to the control of growth, 0-40% cell inhibition)"
same,activity (cell inhibition),"[7]; HT-29, TEST CONC (µg) 5",+ ((+) low activity - numbers of cells are reduced by approx 50-60%)
same,activity (cell inhibition),"[7]; HT-29, TEST CONC (µg) 10",+++ ((+++) very good activity - there is 100% cell inhibition)
same,activity (cell inhibition),"[7]; HT-29, TEST CONC (µg) 20",+++ ((+++) very good activity - there is 100% cell inhibition)
same,IC50,"[7]; Homo sapiens, HT-29, read-out: IC50 µg/ml approx",~5 µg/mL
same,IC50,"[8]; Mesocricetus auratus, read-out: IC50 µg/ml approx",2 to 5 µg/mL
same,activity (cell inhibition),[8]; TEST CONC (µg) 0.2,"- ((-) no activity - the number of cells is equal to the control of growth, 0-40% cell inhibition)"
same,activity (cell inhibition),[8]; TEST CONC (µg) 0.5,"- ((-) no activity - the number of cells is equal to the control of growth, 0-40% cell inhibition)"
same,activity (cell inhibition),[8]; TEST CONC (µg) 1,"- ((-) no activity - the number of cells is equal to the control of growth, 0-40% cell inhibition)"
same,activity (cell inhibition),[8]; TEST CONC (µg) 2,"- ((-) no activity - the number of cells is equal to the control of growth, 0-40% cell inhibition)"
same,activity (cell inhibition),[8]; TEST CONC (µg) 5,++ ((++) good activity - numbers of cells are reduced by approx 70-90%)
same,activity (cell inhibition),[8]; TEST CONC (µg) 10,+++ ((+++) very good activity - there is 100% cell inhibition)
same,activity (cell inhibition),[8]; TEST CONC (µg) 20,+++ ((+++) very good activity - there is 100% cell inhibition)
